Where two headings read alike, the source gives them in different places.
Assays:
Format in all cases: cell-based
[1] = test system: human cytotoxic T-lymphocyte responses; assay: Inhibition of human CTL responses (mixed leukocyte-tumor cultures, HT-144 melanoma, ^51 Cr release); settings: donor I, 0.01% ethanol, effector to target 6:1
Method: Human cells for the tests described below were taken from four donors designated I, II, III, and IV in the tables below.
Stock solutions of Vitamin D derivatives were prepared as they were prepared above in the murine tests.
Human cytotoxic T-lymphocytes were generated in mixed leukocyte-tumor cultures by known methods. Specifically, blood from normal volunteer donors was drawn into heparinized syringes, diluted 1:1 with calcium-magnesium free Hanks' balanced salt solution (Ca-Mg free HBSS), and layered over lymphocyte separation medium (Litton Bionetics, Kensington, MD). After centrifugation at 500xg for 20-30 min at room temperature, peripheral blood mononuclear cells were harvested from the interface. The peripheral blood mononuclear leukocytes were centrifuged and resuspended in Ca-Mg free HBSS and were subsequently separated from platelets by centrifugation at 500xg through a solution of 20% sucrose and 1% human AB serum in Ca-Mg free HBSS. The cells were washed once and finally resuspended in tissue culture medium. […] Cells to be used as stimulator cells in mixed leukocyte-tumor cultures were irradiated with 10,000 rads of gamma irradiation to preclude proliferation in culture. Mixed leukocyte-tumor cell cultures were established in 16 mm tissue culture wells at a final volume of 1.5 ml per well containing 2×10^6 peripheral blood mononuclear leukocytes and 5×10^4 irradiation-inactivated stimulator cells. In order to prevent the generation of nonspecific cytotoxic cells in these cultures, hydrocortisone sodium succinate was added to each culture at a final concentration of 1×10^-5 M. Mixed leukocyte-tumor cultures were incubated for 6 days in a humidified atmosphere of 5% CO2 in air.
Labelled target cells were washed free of unbound isotope by 3 serial washes in tissue culture medium and were finally resuspended at a concentration of 5×10^4 cells per ml.
Assays of human cytotoxic T-lymphocytes were done by known methods. Specifically, one-tenth ml aliquots of ^51 Cr-labelled target cell suspension were added to "half area" microtest plates and were incubated at 37° C. for 18 hours in a humidified atmosphere of 5% CO2 in air to permit the cells to adhere and spread on the floor of each well. Culture medium was then aspirated from each well and was replaced with 0.1 ml of tissue culture medium containing cells harvested from mixed leukocyte-tumor cultures which had been processed as described for murine mixed leukocute cultures, above. Control wells for measurement of spontaneous ^51 Cr release received medium without effector cells and wells for measurement of maximal releasable ^51 Cr received 0.1 ml of 2% sodium dodecyl sulfate in distilled water. After overnight incubation at 37° in a humidified atmosphere of 5% CO2 in air, 0.05 ml of cell-free supernatant was withdrawn from each well and the amount of released ^51 Cr was quantitated using a gamma spectrometer. The percentage of specific ^51 Cr release (CTL activity) and the percent inhibition of CTL activity were calculated with the same formulas used above for the murine CTL assay.
Tests conducted on human cytotoxic T-lymphocyte responses are reported as the mean±standard error of the mean from triplicate ^51 Cr release determinations on pooled cells from duplicate control or test cultures.

[2] = test system: IgG production by human lymphocytes; assay: Inhibition of IgG production by human lymphocytes in vitro (SAC activation, ELISA); settings: 8 days, vehicle control 0.78 ± 0.09
Source text: (§1) General Test Description Humoral immunity comprises one of the two major arms of the immune system and generally is beneficial. However, a number of disease states are characterized by a hyperactive immune system responding to self tissue antigens. […] In these diseases it would be important to suppress the humoral immune system.
(§2) In the following studies we used established methods to examine the effect of Vitamin D derivatives on the in vitro production of immunoglobulin (Ig) by human peripheral blood leukocytes (PBL) following polyclonal activation. Immunoglobulin was induced from PBL by co-culturing the PBL with the polyclonal B cell activator Staphylococcus aureus strain Cowan I (SAC) for a period of 8 days. The quantity of Ig produced in the culture supernatants was determined by using an enzyme linked immunosorbent assay (ELISA). The effect of Vitamin D derivatives was determined by comparing the amount of antibody produced in cultures containing Vitamin D derivatives to those cultures containing an appropriate concentration of vehicle (ethanol).
(§3) Solutions of vitamin D derivatives. Stock solutions of vitamin D derivatives were prepared as described previously for the murine CTL experiments.
(§4) INDUCTION OF HUMAN IG SECRETION Human peripheral blood mononuclear leukocytes were prepared from one day old buffy coat preparations obtained from the American Red Cross (Lansing, MI). […] Twenty five ml of this preparation were overlayed onto 25 ml of Ficoll-Paque contained in a 50 ml polypropylene centrifuge tube. After centrifugation at 400×g at 15° C. for 40 min, the cells at the interface of the medium and Ficoll were removed and washed 3 times in 50 ml RPMI medium and centrifuged at 300×g for 10 minutes. After the final centrifugation,the cell pellet was suspended in RPMI medium containing 20% fetal bovine serum (FBS) and 80 μg/ml gentamicin. The number of viable cells was determined by trypan blue exclusion and were then suspended to 2.5×10^6 viable cells per ml in RPMI containing 20% FBS and gentamicin. Human PBL were induced to secrete Ig as follows. One hundred microliters of the PBL suspension and an additional 100 μl of a 1:20,000 (v/v) preparation of SAC suspended in RPMI containing 1% FBS were added to each well of a 96-well microtiter plate. Selected wells were also set up without the addition of SAC to serve as negative controls (spontaneous Ig secretion). Each well then received 20 μl of either the appropriate dilution of Vitamin D derivative in RPMI with 1% ethanol or RPMI with 1% ethanol (vehicle control). The vitamin D derivatives were tested at final concentrations of 10^-5, 10^-6, 10^-7, 10^-8, 10^-9, and 10^-10 M and in all cases the vehicle (ethanol) concentration was 0.1%. All treatments were performed in triplicate. […] The samples were then either assayed immediately or stored at -20° C. until assayed by the ELISA technique described below.
(§5) QUANTITATION OF SECRETED IG (ELISA ASSAY) ELISA plates were prepared for quantitating human IgG and IgM levels in culture supernatants as follows. Affinity purified sheep anti-human IgG and goat anti-human IgM (Cappel, Cochranville, PA) were diluted 1:250 and 1:400 respectively, in carbonate coating buffer (0.05M sodium bicarbonate, 0.05M sodium carbonate, 0.15M sodium chloride). One hundred and fifty microliters of the antibody preparation were added to each well of a 96 well ELISA plate (EIA, Costar). The plates were sealed and incubated overnight at 4° C. and on the following day were washed 3 times with distilled water. Each well then received 350 μl of Dulbecco's PBS containing 1 mg/ml bovine serum albumin (BSA) and 0.5 mg/ml sodium azide. The plates were allowed to incubate for 1 hour at 37° C. and then washed 3 times with Dulbecco's PBS containing 0.5% stock Tween 20 (PBS-Tween) followed by 2 washes with distilled water. The plates were air dried and stored desiccated under a vacuum at 4° C. until use.

[3] = test system: IgM production by human lymphocytes; assay: Inhibition of IgM production by human lymphocytes in vitro (SAC activation, ELISA); settings: 8 days, vehicle control 2.49 ± 0.17
Source text: as §1, §2, §3, §4, §5

Question: `C=C1/C(=C\C=C2/CCC[C@]3(C)[C@@H]([C@H](C)CC[C@@H](F)C(C)(C)O)CC[C@@H]23)C[C@@H](O)C[C@@H]1O` [24R-F--1α,25-(OH)2 --D3, 1α,25-Dihydroxy-24R-fluorocholecalciferol] was tested. Which inhibition at 1 µM ([1]; Homo sapiens, T-lymphocyte, Test 1, 1 × 10^-6 molar, read-out: Inhibition of CTL activity (%)) did it give?
Answer: The inhibition at 1 µM was 87%.

Question: And the inhibition at 0.1 µM ([1]; Homo sapiens, T-lymphocyte, Test 1, 1 × 10^-7 molar, read-out: Inhibition of CTL activity (%))?
Answer: The inhibition at 0.1 µM was 62%.

Question: And the inhibition at 10 µM ([1]; Homo sapiens, T-lymphocyte, Test 2, 1 × 10^-5 molar, read-out: Inhibition of CTL activity (%))?
Answer: The inhibition at 10 µM was 94%.

Question: And the inhibition at 1 µM ([1]; Homo sapiens, T-lymphocyte, Test 2, 1 × 10^-6 molar, read-out: Inhibition of CTL activity (%))?
Answer: Its inhibition at 1 µM is 100%.

Question: What about the “CTL activity (% specific ^51 Cr release)” value ([1]; Test 1, 1 × 10^-6 molar) of the same compound?
Answer: The value was 7 ± 6 % specific ^51 Cr release.

Question: And the “CTL activity (% specific ^51 Cr release)” value ([1]; Test 1, 1 × 10^-7 molar)?
Answer: Its value is 20 ± 1 % specific ^51 Cr release.

Question: And the “CTL activity (% specific ^51 Cr release)” value ([1]; Test 2, 1 × 10^-5 molar)?
Answer: The value was 3 ± 4 % specific ^51 Cr release.

Question: What about the “CTL activity (% specific ^51 Cr release)” value ([1]; Test 2, 1 × 10^-6 molar) of the same compound?
Answer: Its value is 0 ± 3 % specific ^51 Cr release.

Question: And the “IgG μg per culture (x ± S.E.M.)” value ([2]; 1 × 10^-6 molar)?
Answer: The value was “undetectable”.

Question: What about the “IgG μg per culture (x ± S.E.M.)” value ([2]; 1 × 10^-7 molar) of the same compound?
Answer: The value was 0.01 ± 0.002 μg per culture.

Question: What about the “IgG μg per culture (x ± S.E.M.)” value ([2]; 1 × 10^-8 molar) of the same compound?
Answer: Its value is 0.10 ± 0.02 μg per culture.

Question: What about the “IgG μg per culture (x ± S.E.M.)” value ([2]; 1 × 10^-9 molar) of the same compound?
Answer: Its value is 0.22 ± 0.05 μg per culture.

Question: And the “IgG μg per culture (x ± S.E.M.)” value ([2]; 1 × 10^-10 molar)?
Answer: Its value is 0.21 ± 0.06 μg per culture.

Question: And the “IgM μg per culture (x ± S.E.M.)” value ([3]; 1 × 10^-6 molar)?
Answer: Its value is “undetectable”.

Question: And the “IgM μg per culture (x ± S.E.M.)” value ([3]; 1 × 10^-7 molar)?
Answer: The value was 0.12 ± 0.06 μg per culture.

Question: What about the “IgM μg per culture (x ± S.E.M.)” value ([3]; 1 × 10^-8 molar) of the same compound?
Answer: Its value is 1.23 ± 0.03 μg per culture.

Question: What about the “IgM μg per culture (x ± S.E.M.)” value ([3]; 1 × 10^-9 molar) of the same compound?
Answer: The value was 3.13 ± 0.41 μg per culture.

Question: What about the “IgM μg per culture (x ± S.E.M.)” value ([3]; 1 × 10^-10 molar) of the same compound?
Answer: The value was 3.84 ± 0.72 μg per culture.

— patent US4749710A, “Immunosuppressive agents” (priority 1985, dated 1988)
